The text below walks through data of patent publication US5559132A, “Carboxamide derivatives for treating asthma” (Zeneca Limited, priority 1993, dated 1996).

The Kb is the equilibrium dissociation constant of an antagonist, usually derived from a functional assay. Low readings indicate higher antagonist affinity, high ones lower antagonist affinity.

For the test, the target named is T1, guinea pig trachea (NKA or [β-ala8]-NKA(4-10) as agonist) (Cavia porcellus, UniProt Q64077).
T1 construct: The trachea are removed, trimmed of excess tissue and divided into two segments; from tissue; host or cells: guinea pig trachea rings (male animals)
T1 sequence (Q64077 1-402): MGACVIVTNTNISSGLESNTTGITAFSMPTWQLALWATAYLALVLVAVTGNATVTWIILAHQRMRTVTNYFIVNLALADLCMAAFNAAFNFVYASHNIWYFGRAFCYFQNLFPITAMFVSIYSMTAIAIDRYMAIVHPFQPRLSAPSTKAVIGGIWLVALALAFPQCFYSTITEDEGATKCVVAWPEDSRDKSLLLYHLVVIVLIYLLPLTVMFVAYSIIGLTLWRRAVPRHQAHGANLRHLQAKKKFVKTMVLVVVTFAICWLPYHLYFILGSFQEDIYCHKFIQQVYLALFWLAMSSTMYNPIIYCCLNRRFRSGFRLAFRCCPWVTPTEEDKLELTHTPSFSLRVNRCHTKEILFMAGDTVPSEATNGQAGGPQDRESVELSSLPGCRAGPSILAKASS
In words: Guinea Pig Assay (Test B): antagonism of NKA or [β-ala8]-NKA(4-10) contraction in guinea pig trachea. The following applies: -log molar KB. The procedure:
In the test described below either NKA or [β-ala^8 ]-NKA(4-10) is used as an agonist. The chosen agonist is refered to as AG throughout the description.
Male guinea pigs are killed by a sharp blow to the back of the head. The trachea are removed, trimmed of excess tissue and divided into two segments. […] Initial tension placed on each tissue is 1 g, which is maintained throughout a 0.5 to 1.5 hour equilibration period before addition of other drugs. Contractile responses are measured on a Grass polygraph via Grass FT-03 force transducers.
Tissues are challenged repetitively with a single concentration of AG (10 nM) with intervening 30 min periods with washing to allow the tension to return to baseline levels. […] Percent inhibition is determined when a Compound produces a statistically significant (p<0.05) reduction of the contraction and is calculated using the second contractile response as 100%.
Potencies of selected Compounds are evaluated by calculating apparent dissociation constants (KB) for each concentration tested using the standard equation: […]
where dose ratio=antilog[(AG -log molar EC50 without Compound)--(AG -log molar EC50 with Compound)]. The KB values may be converted to the negative logarithms and expressed as -log molar KB (i.e. pKB). […] The EC50 values are converted to the negative logarithms and expressed as -log molar EC50. […]

Regarding `CC(=O)N(C1CCCCC1)C1CCN(CCC(CN(C)C(=O)c2ccccc2)c2ccc(Cl)c(Cl)c2)CC1` (stereo not shown) [Example 4, N-[4-[4-(N-Cyclohexylacetamido)piperidino]-2-(3,4-dichlorophenyl)butyl]-N-methylbenzamide], the Kb was 20 nM.
